“Also recorded” adds a separate entry of the source.

For assay [1], the system named is female genital blood flow. The assay is described as follows: Female genital blood flow in the anaesthetised rabbit model of sexual arousal (pelvic nerve stimulation). It counts as in vivo. The note with it: 15 mg/kg sc; for basal genital blood flow in the absence of PNS / pelvic-nerve stimulated (PNS) increases in genital (vaginal and clitoral) blood flow: anaesthetised female rabbit (FIGS. 22, 23). The method, then:
Female New Zealand rabbits (˜2.5kg) were pre-medicated with a combination of Medetomidine (Domitor®) 0.5 ml/kg i.m., and Ketamine (Vetalar®) 0.25 ml/kg im. whilst maintaining oxygen intake via a face mask. The rabbits were tracheotomised using a PortexTM uncuffed endotracheal tube 3 ID., connected to ventilator and maintained at a ventilation rate of 30-40 breaths per minute, with an approximate tidal volume of 18-20 ml, and a maximum airway pressure of 10 cm H2O. Anaesthesia was then switched to Isoflurane and ventilation continued with O2 at 21/min. The right marginal ear vein was cannulated using a 23G or 24G catheter, and Lactated Ringer solution perfused at 0.5 ml/min. The rabbit was maintained at 3% Isoflurane during invasive surgery, dropping to 2% for maintenance anaesthesia.
The left groin area of the rabbit was shaved and a vertical incision was made approximately 5 cm in length along the thigh. The femoral vein and artery were exposed, isolated and then cannulated with a PVC catheter (17G) for the infusion of drugs and compounds. Cannulation was repeated for the femoral artery, inserting the catheter to a depth of 10 cm to ensure that the catheter reached the abdominal aorta. This arterial catheter was linked to a Gould system to record blood pressure. Samples for blood gas analysis were also taken via the arterial catheter. Systolic and diastolic pressures were measured, and the mean arterial pressure calculated using the formula (diastolic x2 +systolic)÷3. Heart rate was measured via the pulse oxymeter and Po-ne-mah data acquisition software system (Ponemah Physiology Platform, Gould Instrument Systems Inc). A ventral midline incision was made into the abdominal cavity. The incision was about 5 cm in length just above the pubis. The fat and muscle was bluntly dissected away to reveal the hypogastric nerve which runs down the body cavity. It was essential to keep close to the side curve of the pubis wall in order to avoid damaging the femoral vein and artery which lie above the pubis. The sciatic and pelvic nerves lie deeper and were located after further dissection on the dorsal side of the rabbit. Once the sciatic nerve is identified, the pelvic nerve was easily located. The term pelvic nerve is loosely applied; anatomy books on the subject fail to identify the nerves in sufficient detail. However, stimulation of the nerve causes an increase in vaginal and clitoral blood flow, and innervation of the pelvic region. The pelvic nerve was freed away from surrounding tissue and a Harvard bipolar stimulating electrode was placed around the nerve. The nerve was slightly lifted to give some tension, then the electrode was secured in position. Approximately 1 ml of light paraffin oil was placed around the nerve and electrode. This acts as a protective lubricant to the nerve and prevents blood contamination of the electrode. The electrode was connected to a Grass S88 Stimulator. The pelvic nerve was stimulated using the following parameters:-5V, pulse width 0.5 ms, duration of stimulus 10 seconds and a frequency range of 2 to 16 Hz. Reproducible responses were obtained when the nerve was stimulated every 15-20 minutes. A frequency response curve was determined at the start of each experiment in order to determine the optimum frequency to use as a sub-maximal response, normally 4 Hz. A ventral midline incision was made, at the caudal end of the pubis, to expose the pubic area. Connective tissue was removed to expose the tunica of the clitoris, ensuring that the wall was free from small blood vessels. The external vaginal wall was also exposed by removing any connective tissue. One laser Doppler flow probe was inserted 3 cm into the vagina, so that half the probe shaft was still visible. A second probe was positioned so that it lay just above the external clitoral wall. The position of these probes was then adjusted until a signal was obtained. A second probe was placed just above the surface of a blood vessel on the external vaginal wall. […]

Assay [2] has as its system penile intracavernosal pressure. The assay is described as follows: Penile intracavernosal pressure in the conscious male rat (telemetry). The note with it: Compound 1 10 mg/kg sc, one hour after, Compound 3 15 mg/kg sc, 45 minutes after, conscious male rat (FIGS. 24, 25). It counts as in vivo. The method, then: In addition to treating women with FSD, bombesin antagonists will be useful in treating male erectile dysfunction (MED. Both the non-selective BB1/2 antagonists (Compound 1; 10 mg/kg sc) and the selective BB1 receptor antagonist (Compound 3; 15 mg/kg sc) is pro-erectile in a conscious rat model of penile erection (FIGS. 24 and 25). Erectile responses were recorded by measuring intracavemosal pressure using surgically implanted telemetric device. The specific details the surgical procedures, data acquisition and analysis can be found in detail in Bernabe 1999.
Compound 1 and compound 3 were dissolved in 50% β-cyclodextrin in saline. They were administered at a dose of […] subcutaneously (sc). […] These increases equate to penile erection. Both Compounds 1 and 3 induced a number of erections in a similar manner to those observed with apomorphine or melanotan-II—both of which are clinically proven agents that are effective in the treatment of MED. Moreover the amplitude of the increases observed were similar to those observed with apomorphine or melanotan-II. The mechanism of action is thought to be similar to the effects on female genital flow ie CNS potentiation of the descending neuronal pathways that control penile erection.

For `COc1ccc(C2(CNC(=O)[C@](C)(Cc3c[nH]c4ccccc34)NC(=O)Nc3ccc([N+](=O)[O-])cc3)CCCCC2)nc1` [Compound (1), (S) 3-(1H-Indol-3-yl)-N-[1-(5-methoxy-pyridin-2-yl)-cyclohexyl-methyl]-2-methyl-2-[3-(4-nitro-phenyl)-ureido]-propionamide], in assay [1], the “basal genital blood flow in the absence of PNS” value was “no effect on basal genital blood flow”; the “pelvic-nerve stimulated (PNS) increases in genital (vaginal and clitoral) blood flow” value is recorded as “potent enhancer of pelvic-nerve stimulated (PNS) increases in genital blood flow”. For the same molecule, in assay [2], the “penile intracavernosal pressure / erection” value is “pro-erectile; also recorded: significant increases in intracavernosal pressure”.

On to `C[C@@](Cc1c[nH]c2ccccc12)(NC(=O)Nc1ccc([N+](=O)[O-])cc1)C(=O)NCC1(c2ccc(N)cc2)CCCCC1` [Compound 3, (2S)-N-{[1-(4-aminophenyl)cyclohexyl]methyl}-3-(1H-indol-3-yl)-2-methyl-2-{[(4-nitroanilino)-carbonyl]amino}propanamide], for which, in assay [1], the “time after sc dosing at which potentiation was significant” value was found to be 45 min; the “time potentiation remained elevated” value was “circa 1 hr”; the “basal genital blood flow in the absence of PNS” value is on record as “no effect on basal genital blood flow”; the “pelvic-nerve stimulated (PNS) increases in genital (vaginal and clitoral) blood flow” value was “potent enhancer of pelvic-nerve stimulated (PNS) increases in vaginal and clitoral blood flow”. Further, the “penile intracavernosal pressure / erection” value in assay [2] was “pro-erectile”. Also, the “penile intracavernosal pressure / erection” value in assay [2] (listed as compound 3) was “significant increases in intracavernosal pressure”.
